# Experimental data: patent US4362663A, “Maytansinoid compound” (Takeda Chemical Industries, Ltd., priority 1979, dated 1982)
# Assays:
# Solubility = format: physicochemical
# Bacillus subtilis = assay: Antimicrobial activity, paper disk method on trypticase-soy-agar; format: cell-based; settings: paper disk diam. 8 mm, 0.02 ml of a 300 μg/ml solution
# Description: (§1) Using trypticase-soy-agar (Baltimore Biologicals, U.S.A.) as a test medium, the minimal inhibitory concentration of each compound against the following microorganisms was determined by the paper disk method. Thus, on plate media containing the following organisms, growth inhibition was investigated using paper disks (Toyo Roshi Corp., Japan thin-type, diam. 8 mm) imbibed with 0.02 ml of a 300 μg/ml solution of PND-1, PND-2, PND-3 or PND-4.
# (§2) Escherichia coli, Proteus vulgaris, Proteus mirabilis, Pseudomonas aeruginosa, Staphylococcus aureus, Bacillus subtilis, Bacillus cereus, Klebsiella pneumoniae, Serratia marcescens, Mycobacterium avium.
# Mycobacterium avium = assay: as above; format: cell-based; settings: paper disk diam. 8 mm, 0.02 ml of a 300 μg/ml solution
# Description: as §1, §2
# Bacillus cereus = assay: as above; format: cell-based; settings: paper disk diam. 8 mm, 0.02 ml of a 300 μg/ml solution
# Description: as §1, §2
# Staphylococcus aureus = assay: as above; format: cell-based; settings: paper disk diam. 8 mm, 0.02 ml of a 300 μg/ml solution
# Description: as §1, §2
# Proteus vulgaris = assay: as above; format: cell-based; settings: paper disk diam. 8 mm, 0.02 ml of a 300 μg/ml solution
# Description: as §1, §2
# Escherichia coli = assay: as above; format: cell-based; settings: paper disk diam. 8 mm, 0.02 ml of a 300 μg/ml solution
# Description: as §1, §2
# Proteus mirabilis = assay: as above; format: cell-based; settings: paper disk diam. 8 mm, 0.02 ml of a 300 μg/ml solution
# Description: as §1, §2
# Pseudomonas aeruginosa = assay: as above; format: cell-based; settings: paper disk diam. 8 mm, 0.02 ml of a 300 μg/ml solution
# Description: as §1, §2
# Serratia marcescens = assay: as above; format: cell-based; settings: paper disk diam. 8 mm, 0.02 ml of a 300 μg/ml solution
# Description: as §1, §2
# Klebsiella pneumoniae = assay: as above; format: cell-based; settings: paper disk diam. 8 mm, 0.02 ml of a 300 μg/ml solution
# Description: as §1, §2
# [1] = test system: Hamigera avellanea IFO 7721; assay: Microbiological assay, paper disk method; format: cell-based; settings: IFO7721, paper disk diam. 8 mm, 0.02 ml of a 100 μg/ml solution, pH 7.0 medium, read-out: diameter of zone of inhibition
# Description: On the other hand, on a plate assay medium [disodium phosphate 3.5 g, monopotassium phosphate 0.5 g, yeast extract (Difco, U.S.A.) 5 g, glucose 10 g, agar 15 g, distilled water 1000 ml, pH 7.0], a microbiological assay was carried out by the paper disk method using Hamigera avellanea IFO 7721 as a test organism. On said plate medium inoculated with said organism, growth inhibition was examined using a paper disk (Toyo Roshi Corp., Japan, Thin type, diam.8 mm) imbibed with 0.02 ml of a 100 μg/ml solution of PND-1, PND-2, PND-3 or PND-4. The diameters of zones of inhibition were 28 mm for PND-1, 30 mm for PND-2, 34 mm for PND-3 and 36 mm for PND-4.
# mice = assay: Acute toxicity test in mice; format: in vivo; settings: intraperitoneal
# Excerpt: In an acute toxicity test performed in mice, PND-1, PND-2, PND-3 and PND-4 were given to animals by the intraperitoneal route.
# P388 tumor cell = assay: Antitumor activity in P388 tumor-bearing mice; format: in vivo; settings: P388 1×10^6 cell/mouse, intraperitoneal
# Excerpt: The therapeutic action of PND-1, PND-2, PND-3 and PND-4 against P388 tumor cell (1×10^6 cell/mouse, intraperitoneal) was investigated.
# [2] = test system: Tetrahymena pyriformis W strain; assay: Minimal inhibitory concentration, serial broth dilution method; format: cell-based; settings: 28° C., 44 to 48 hours
# Description: On the other hand, Tetrahymena pyriformis W strain, as a test organism, was cultivated on an assay medium [Proteose-peptone (Difco) 20 g, yeast extract 1 g, glucose 2 g, distilled water 1000 ml, 1 M phosphate buffer (pH 7.0) 10 ml] at 28° C. for 44 to 48 hours and the minimal inhibitory concentrations of the antibiotics against said organisms were determined by the serial broth dilution method.
Structure (SMILES),"Solubility in chloroform, ethyl acetate, acetone, ethanol, methanol, pyridine, tetrahydrofuran, dimethylsulfoxydo (Solubility)","Solubility in petroleum ether, n-hexane, water (Solubility)",growth inhibition (Bacillus subtilis),growth inhibition (Mycobacterium avium),growth inhibition (Bacillus cereus),growth inhibition (Staphylococcus aureus),growth inhibition (Proteus vulgaris),growth inhibition (Escherichia coli),growth inhibition (Proteus mirabilis),growth inhibition (Pseudomonas aeruginosa),growth inhibition (Serratia marcescens),growth inhibition (Klebsiella pneumoniae),zone of inhibition at 100 µg/mL [1] [mm],LD0 (mice) [mg/kg],LD100 (mice) [mg/kg],life span of tumor-bearing mouse (P388 tumor cell),MIC [2] [µg/mL]
COc1cc2cc(c1Cl)NC(=O)C[C@H](O)[C@]1(C)O[C@H]1[C@H](C)[C@@H]1C[C@@](O)(NC(=O)O1)[C@H](OC)/C=C/C=C(\C)C2 [PND-0],soluble,insoluble,,,,,,,,,,,,,,,
COc1cc2cc(c1Cl)NC(=O)C[C@H](OC(C)=O)[C@]1(C)O[C@H]1[C@H](C)[C@@H]1C[C@@](O)(NC(=O)O1)[C@H](OC)/C=C/C=C(\C)C2 [PND-1],soluble,insoluble,did not exhibit activity,did not exhibit activity,did not exhibit activity,did not exhibit activity,did not exhibit activity,did not exhibit activity,did not exhibit activity,did not exhibit activity,did not exhibit activity,did not exhibit activity,28,0.313,2.5,prolong the life span of a tumor-bearing mouse,8
CCC(=O)O[C@H]1CC(=O)Nc2cc(cc(OC)c2Cl)C/C(C)=C/C=C/[C@@H](OC)[C@@]2(O)C[C@H](OC(=O)N2)[C@@H](C)[C@@H]2O[C@@]12C [PND-2],soluble,insoluble,did not exhibit activity,did not exhibit activity,did not exhibit activity,did not exhibit activity,did not exhibit activity,did not exhibit activity,did not exhibit activity,did not exhibit activity,did not exhibit activity,did not exhibit activity,30,0.313,2.5,prolong the life span of a tumor-bearing mouse,4
COc1cc2cc(c1Cl)NC(=O)C[C@H](OC(=O)C(C)C)[C@]1(C)O[C@H]1[C@H](C)[C@@H]1C[C@@](O)(NC(=O)O1)[C@H](OC)/C=C/C=C(\C)C2 [PND-3],soluble,insoluble,did not exhibit activity,did not exhibit activity,did not exhibit activity,did not exhibit activity,did not exhibit activity,did not exhibit activity,did not exhibit activity,did not exhibit activity,did not exhibit activity,did not exhibit activity,34,0.313,2.5,prolong the life span of a tumor-bearing mouse,2
COc1cc2cc(c1Cl)NC(=O)C[C@H](OC(=O)CC(C)C)[C@]1(C)O[C@H]1[C@H](C)[C@@H]1C[C@@](O)(NC(=O)O1)[C@H](OC)/C=C/C=C(\C)C2 [PND-4],soluble,insoluble,did not exhibit activity,did not exhibit activity,did not exhibit activity,did not exhibit activity,did not exhibit activity,did not exhibit activity,did not exhibit activity,did not exhibit activity,did not exhibit activity,did not exhibit activity,36,0.313,2.5,prolong the life span of a tumor-bearing mouse,1
